# Source: US11793782B2, “Therapeutic agents for neurodegenerative diseases” (priority 2017, dated 2023)
# Experiments:
# [1] = test system: Niemann-Pick A (NPA) patient fibroblasts; experiment: Lysosomal volume via LysoTracker, NPA fibroblasts; format: cell-based, human; conditions: 1 mM, 6 days
# [2] = test system: Mucolipidosis Type II (MLII) patient fibroblasts; experiment: Lysosomal volume via LysoTracker, MLII fibroblasts; format: cell-based, human; conditions: 1 mM, 6 days
# [3] = test system: Aspartylglucosaminuria patient fibroblasts; experiment: Lysosomal volume via LysoTracker, Aspartylglucosaminuria fibroblasts; format: cell-based, human; conditions: 1 mM, 6 days
# [4] = test system: Mucolipidosis Type IIIA (MLIIIA) patient fibroblasts; experiment: Lysosomal volume via LysoTracker, MLIIIA fibroblasts; format: cell-based, human; conditions: 1 mM, 6 days
# [5] = test system: Mucopolysaccharidosis Type VII (MPS VII) patient fibroblasts; experiment: Lysosomal volume via LysoTracker, MPS VII fibroblasts; format: cell-based, human; conditions: 1 mM, 6 days
# [6] = test system: Hexb−/− mouse (Sandhoff disease model); experiment: Lifespan of Sandhoff mouse; format: in vivo
# Method: This study made use of a mouse model of Sandhoff disease, the Hexb^−/− mouse, as descrbed in Jeyakumar et al. (Jeyakumar, M. et al. (1999) Proc. Natl. Acad. Sci. USA 96: 6388-6393).
# In FIG. 7A, acetyl-leucine-treated mice were treated with 0.1 g/kg acetyl-leucine from 3 weeks of age. The asterisks (*) indicates a p-value of <0.05 vs untreated Sandhoff mice. Data is average of n=6 mice per group. Without treatment, the median survival time of Sandhoff mice was 112 days. Treatment with acetyl-leucine (0.1 g/kg body weight since 3 weeks of age) increased the median lifespan to 120 days.
# [7] = test system: Hexb−/− mouse (Sandhoff disease model); experiment: Step cycle, Sandhoff mouse; format: in vivo; conditions: Sandhoff mice, 0.1 g/kg from 3 weeks of age, 12 weeks of age
# Method: Step cycle is the length of time taken during locomotion by a limb from the time it leaves the ground until it leaves the ground on the next occasion. Step cycle time was assessed at 12 weeks of age in untreated and acetyl-leucine treated Sandhoff model mice. Acetyl-leucine treatment constituted 0.1 g/kg body weight acetyl-leucine from 3 weeks of age.
# [8] = test system: Tay-Sachs disease patient fibroblasts; experiment: Glycosphingolipid (GSL) levels by HPLC, Tay-Sachs fibroblasts; format: cell-based, human; conditions: 1 mM for 6 days, p<0.05
# [9] = test system: GM1 Gangliosidosis patient; experiment: Case study, GM1 Gangliosidosis patient; format: in vivo, human; conditions: after one month
# From the text: The patient in this case study was a person who was genetically diagnosed with GM1 Gangliosidosis and who was not able to stand or walk by themself, was very limited in daily activities (eating, washing, dressing themself was not possible), and had ocular movement disorder, anarthria, and distinct problems in cognitive function and concentration (neurological examination was not possible).
# The patient was started on therapy with acetyl-leucine at a dose of 1.5 g per day for the first week, followed by a dose of 3 g per day for the second week onwards.
# MSA-C patients = experiment: Case studies, multisystemic atrophy cerebellar type (MSA-C) patients; format: in vivo, human
# SCA 28 patient = experiment: Case study, spinocerebellar ataxia 28 (SCA 28); format: in vivo, human
# Method: A gait analysis was performed before treatment commenced. After about one month of treatment, medication was stopped and the patient was evaluated. […] The patient reported that they no longer walked like a robot and could climb the stairs without using the banisters.
# [10] = test system: amyloid precursor protein C-terminal fragments (APP-CTFs); experiment: APP-CTF levels in cerebellum of NPC1−/− mice; format: in vivo, mouse; conditions: 0.1 g/kg body weight daily from 3 weeks of age, sacrificed at 8 weeks
# Method: (§1) The Niemann-Pick Disease Type C (NPC) mouse model shares a number of pathological features with Alzheimer's disease (AD) as described herein. […] Mice were sacrificed at 8 weeks of age. Levels of amyloid precursor protein C-terminal fragments (APP-CTFs) were evaluated relative to total amyloid precursor protein (APP) levels in the cerebellum for wild type, untreated wild type NPC1^−/− mice, and AL-treated wild type NPC1^−/− mice. Levels of microtubule-associated protein 1A/1B-light chain 3-phosphatidylethanolamine conjugate (LC3-II) were also evaluated relative to levels of tubulin loading control for wild type, untreated wild type NPC1^−/− mice, and AL-treated wild type NPC1^−/− mice.
# [11] = test system: microtubule-associated protein 1A/1B-light chain 3-phosphatidylethanolamine conjugate (LC3-II); experiment: LC3-II levels in NPC1−/− mice; format: in vivo, mouse; conditions: 0.1 g/kg body weight daily from 3 weeks of age, sacrificed at 8 weeks
# Method: as §1
# MSA-P patients = experiment: Case studies, multiple system atrophy Parkinson type (MSA-P) patients; format: in vivo, human; conditions: MSA-P Patient 1; 6 weeks later
# vertigo patients = conditions: used in France to treat acute vertigo since 1957; cited from earlier work
# [12] = test system: patients with cerebellar ataxia; conditions: cited from earlier work
# [13] = MSA-C Patient 3, after 20 days of re-suspending treatment
# [14] = MSA-C Patient 3, after 27 days of treatment
# [15] = MSA-C Patient 3, shortly after commencing treatment
structure (smiles),measurement,setting,value
CC(=O)NC(CC(C)C)C(=O)O (racemic) [acetyl-DL-leucine],LysoTracker fluorescence relative to untreated disease fibroblasts,[1],statistically significant reduction in LysoTracker fluorescence
same,LysoTracker fluorescence relative to untreated disease fibroblasts,[2],statistically significant reduction in LysoTracker fluorescence
same,LysoTracker fluorescence relative to untreated disease fibroblasts,[3],trend in reducing LysoTracker fluorescence
same,LysoTracker fluorescence relative to untreated disease fibroblasts,[4],trend in reducing LysoTracker fluorescence
same,LysoTracker fluorescence relative to untreated disease fibroblasts,[5],trend in reducing LysoTracker fluorescence
same,Median lifespan,"[6]; Sandhoff mice, 0.1 g/kg body weight since 3 weeks of age, untreated 112 days",120 days
same,Lifespan,"[6]; Sandhoff mouse, 0.1 g/kg from 3 weeks of age, p<0.05 vs untreated",statistically significant increase in the lifespan
same,Average step cycle time,[7]; p<0.001 vs untreated,significantly faster average step cycle times
same,Hind step cycle time,[7]; p<0.01 vs untreated,significantly faster hind step cycle times
same,Front step cycle time,[7]; p<0.05 vs untreated,significantly faster front step cycle times
same,GSL storage (decrease),[8],statistically significant
same,SARA,"[9]; 3 g per day, baseline 35/40",35/40
same,Clinical observation,[9],"stable general condition, increased gait (more fluent), and stable stance in natural position"
same,mRDS,[9]; baseline 15,16
same,EQ-5D-5L visual scale,[9]; baseline 50,60
same,Speech,"MSA-C patients; MSA-C Patient 1, 5 g per day, after one week",significant improvement in speech
same,Falls,"MSA-C patients; MSA-C Patient 2, after 3 weeks, before approximately 10 falls a month",falls completely stopped
same,Symptoms after stopping medication,"MSA-C patients; MSA-C Patient 2, one week after stopping",deterioration of gait and dizziness
same,Symptoms after stopping medication again,"MSA-C patients; MSA-C Patient 2, two days after stopping, following a further 40 days of treatment",progressive deterioration of gait and dizziness
same,Gait,"MSA-C patients; MSA-C Patient 2, up to 5 gram per day, after 3 weeks",significant improvement of gait
same,speed,"MSA-C patients; MSA-C Patient 3, 5 gram per day, after 27 days of treatment",106 cm/s
same,Coefficient of variation (temporal),MSA-C patients; [13],2.5
same,Double stance,MSA-C patients; [13],27.1%
same,Functional Gait Assessment,MSA-C patients; [13],22/30
same,Max. speed,MSA-C patients; [13],197 cm/s
same,Step cycle length,MSA-C patients; [13],115 cm
same,Track width,MSA-C patients; [13],17.5 cm
same,cadence,MSA-C patients; [13],112 steps/minute
same,speed,MSA-C patients; [13],106 cm/s
same,Coefficient of variation (temporal),MSA-C patients; [14],3.1
same,Double stance,MSA-C patients; [14],27.3%
same,Functional Gait Assessment,MSA-C patients; [14],20/30
same,Max. speed,MSA-C patients; [14],208 cm/s
same,Step cycle length,MSA-C patients; [14],113 cm
same,Track width,MSA-C patients; [14],14.6 cm
same,cadence,MSA-C patients; [14],113 steps/minute
same,Gait analysis (summary),"MSA-C patients; MSA-C Patient 3, after one month of treatment","improvement of gait speed, and reductions of track width and gait fluctuations"
same,Symptoms after stopping medication,"MSA-C patients; MSA-C Patient 3, approximately two to three weeks after stopping",progressive deterioration of gait and dizziness
same,Coefficient of variation (temporal),MSA-C patients; [15],3.3
same,Double stance,MSA-C patients; [15],32.5%
same,Functional Gait Assessment,MSA-C patients; [15],21/30
same,Max. speed,MSA-C patients; [15],183 cm/s
same,Step cycle length,MSA-C patients; [15],87 cm
same,Track width,MSA-C patients; [15],16.8 cm
same,cadence,MSA-C patients; [15],101 steps/minute
same,speed,MSA-C patients; [15],72 cm/s
same,Clinical observation,"SCA 28 patient; 5 g per day, after about one month",improvement of the symptomatology
same,Coefficient of variation (temporal),"SCA 28 patient; after treatment for one month, before 4.1",2.1
same,Track width,"SCA 28 patient; after treatment for one month, before 14.5",11.7 cm
same,Functional Gait Assessment,"SCA 28 patient; after treatment for one month, before 24/30",23/30
same,Double stance,"SCA 28 patient; after treatment for one month, before 24.9",23.8%
same,cadence,"SCA 28 patient; after treatment for one month, before 100",105 steps/minute
same,Self-chosen speed,"SCA 28 patient; after treatment for one month, before 101",118 cm/s
same,Step cycle length,"SCA 28 patient; after treatment for one month, before 122",135 cm
same,Maximum speed,"SCA 28 patient; after treatment for one month, before 188",201 cm/s
same,APP-CTF levels relative to total APP in the cerebellum,[10],lowering of APP-CTFs
same,LC3-II levels relative to tubulin loading control,[11],lowering of LC3-II
same,Symptoms after stopping medication,MSA-P patients,did not report deterioration of symptoms
same,Safety profile,vertigo patients,excellent safety profile
same,PET study in patients with ataxia,[12]; Becker-Bense et al. (2015),increased metabolism in the midbrain and lower brainstem in responders
same,"Cerebellar ataxia, another case series",[12]; Pelz et al. (2015),did not find benefit
same,Quantitative gait analysis,[12]; Schniepp et al. (2015),improved temporal gait variability
same,"Cerebellar ataxia, case series",[12]; Strupp et al. (2013),symptomatic improvement of cerebellar ataxia
